± gives the standard deviation of the averaged measurements.
Columns and labels:
[1] = compound: O=c1[nH]cc(F)c(=O)[nH]1 [FLUOROURACIL]; experiment: surviving fraction relative to DMSO-only wells; higher = less growth inhibition; details: exposure time: 5 days
In short: (§1)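 Viability values are CellTiter-Glo luminescence readings, given as surviving fraction against the median of DMSO-only wells. The readings were taken after 10 minutes at room temperature, following five days of continuous exposure to inhibitors at 0.5, 1, 5, 10, 50, 100, 500 and 1000 nM that began 24 hours after log-phase tumour cell lines were seeded at 250–500 cells per well in 384-well plates. Every line was screened three times and kept only if replicate Pearson r >0.7 and median Z' >0.3.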

[2] = compound: COc1cccc2c1C(=O)c1c(O)c3c(c(O)c1C2=O)C[C@@](O)(C(=O)CO)C[C@@H]3O[C@H]1C[C@H](N)[C@H](O)[C@H](C)O1 [DOXORUBICIN]; experiment: as above; details: exposure time: 5 days
In short: as §1

Test System	surviving fraction ([1]; 0.5 nM)	surviving fraction ([1]; 1 nM)	surviving fraction ([1]; 5 nM)	surviving fraction ([1]; 10 nM)	surviving fraction ([1]; 50 nM)	surviving fraction ([1]; 100 nM)	surviving fraction ([1]; 500 nM)	surviving fraction ([1]; 1000 nM)	surviving fraction ([2]; 0.5 nM)	surviving fraction ([2]; 1 nM)	surviving fraction ([2]; 5 nM)	surviving fraction ([2]; 10 nM)	surviving fraction ([2]; 50 nM)	surviving fraction ([2]; 100 nM)	surviving fraction ([2]; 500 nM)	surviving fraction ([2]; 1000 nM)
22RV1 PROSTATE	1.07 ± 0.11	0.936 ± 0.068	1.1 ± 0.11	0.946 ± 0.13	1.09 ± 0.053	1.104 ± 0.011	0.957 ± 0.15	0.705 ± 0.18	1.02 ± 0.018	0.917 ± 0.047	0.618 ± 0.055	0.416 ± 0.047	0.222 ± 0.03	0.119 ± 0.026	0.024 ± 0.001	0.0357 ± 0.0025
93VU HEADNECK	1.01 ± 0.11	1 ± 0.052	1.07 ± 0.089	1.05 ± 0.11	0.884 ± 0.082	0.884 ± 0.0072	0.665 ± 0.062	0.882 ± 0.063	1.03 ± 0.063	1.08 ± 0.11	1.12 ± 0.085	1.09 ± 0.06	0.697 ± 0.049	0.525 ± 0.046	0.249 ± 0.034	0.109 ± 0.016
143B BONE	1.12 ± 0.15	1.11 ± 0.079	1.14 ± 0.11	1.11 ± 0.094	1.14 ± 0.17	1.12 ± 0.13	1.1 ± 0.12	0.929 ± 0.029	1 ± 0.018	1.02 ± 0.0085	0.957 ± 0.0099	0.827 ± 0.013	0.417 ± 0.027	0.2785 ± 0.00071	0.0605 ± 0.0035	1.008 ± 0.0092
A549 LUNG	1.093 ± 0.0015	1.055 ± 0.007	1.051 ± 0.001	1.04 ± 0.032	1.11 ± 0.019	1.029 ± 0.0045	1.05 ± 0.025	0.554 ± 0.046	0.96 ± 0.032	0.964 ± 0.039	0.963 ± 0.046	1.01 ± 0.032	0.565 ± 0.031	0.496 ± 0.017	0.189 ± 0.015	0.083 ± 0.001
ASKA SYNOVIAL	1.1 ± 0.072	1.06 ± 0.081	1.17 ± 0.021	1.04 ± 0.024	1.01 ± 0.05	0.937 ± 0.066	0.919 ± 0.068	0.775 ± 0.042	0.792 ± 0.014	0.5807 ± 0.0031	0.28 ± 0.0042	0.292 ± 0.007	0.204 ± 0.016	0.166 ± 0.0025	0.16 ± 0.0079	0.224 ± 0.0035
BT20 BREAST	1.15 ± 0.11	1.18 ± 0.11	1.25 ± 0.058	1.16 ± 0.07	0.844 ± 0.079	0.836 ± 0.049	1.09 ± 0.049	0.929 ± 0.1	1.1 ± 0.033	1.02 ± 0.11	0.823 ± 0.034	0.469 ± 0.07	0.187 ± 0.019	0.191 ± 0.025	0.042 ± 0.01	0.037 ± 0.0056
BT549 BREAST	1.07 ± 0.13	1.06 ± 0.024	1.05 ± 0.21	0.95 ± 0.12	0.8 ± 0.06	0.843 ± 0.15	0.872 ± 0.084	0.585 ± 0.071	1.07 ± 0.1	1.03 ± 0.23	0.896 ± 0.087	0.378 ± 0.095	0.229 ± 0.022	0.0903 ± 0.019	0.0257 ± 0.0057	0.0267 ± 0.0015
C33A CERVIX	1 ± 0.086	1.12 ± 0.043	1.08 ± 0.11	1.16 ± 0.05	1.1 ± 0.055	1.1 ± 0.06	1.02 ± 0.085	1.28 ± 0.055	0.842 ± 0.066	0.988 ± 0.068	0.779 ± 0.055	0.604 ± 0.045	0.122 ± 0.013	0.085 ± 0.0096	0.0347 ± 0.0086	0.04 ± 0.0079
CADOES1 SOFT TISSUE	0.969 ± 0.035	0.925 ± 0.057	0.907 ± 0.13	0.963 ± 0.097	0.968 ± 0.03	0.912 ± 0.098	0.905 ± 0.055	0.775 ± 0.081	0.93 ± 0.061	0.795 ± 0.037	0.926 ± 0.078	0.812 ± 0.12	0.573 ± 0.052	0.323 ± 0.035	0.093 ± 0.0087	0.0643 ± 0.011
CAL51 BREAST	0.931 ± 0.016	0.918 ± 0.09	0.944 ± 0.048	0.971 ± 0.016	1 ± 0.057	0.904 ± 0.017	0.915 ± 0.015	0.763 ± 0.018	0.903 ± 0.044	0.919 ± 0.026	0.872 ± 0.029	0.62 ± 0.055	0.112 ± 0.011	0.0608 ± 0.0036	0.0247 ± 0.00076	0.0238 ± 0.0015
CAL72 BONE	1.07 ± 0.014	1.056 ± 0.0093	1.03 ± 0.051	1.05 ± 0.039	1.02 ± 0.037	0.944 ± 0.093	0.955 ± 0.16	0.751 ± 0.16	1.05 ± 0.041	0.743 ± 0.018	1.01 ± 0.033	0.826 ± 0.045	0.298 ± 0.042	0.299 ± 0.018	0.0937 ± 0.0021	0.114 ± 0.0055
CAL120 BREAST	0.986 ± 0.039	0.991 ± 0.041	0.989 ± 0.034	0.979 ± 0.069	0.967 ± 0.015	0.938 ± 0.032	0.983 ± 0.043	0.803 ± 0.024	0.955 ± 0.015	0.916 ± 0.019	0.902 ± 0.024	0.822 ± 0.065	0.401 ± 0.038	0.285 ± 0.019	0.0702 ± 0.0011	0.0468 ± 0.0028
CASKI CERVIX	0.957 ± 0.037	0.928 ± 0.045	0.935 ± 0.04	0.941 ± 0.068	0.92 ± 0.046	0.916 ± 0.066	0.801 ± 0.045	0.555 ± 0.033	0.684 ± 0.14	0.85 ± 0.04	0.221 ± 0.044	0.292 ± 0.049	0.035 ± 0.005	0.143 ± 0.032	0.0187 ± 0.0021	0.0253 ± 0.0015
CHLA90 AUTONOMIC GANGLIA	0.951 ± 0.021	0.946 ± 0.043	0.939 ± 0.059	1 ± 0.13	1.07 ± 0.054	1.04 ± 0.084	0.91 ± 0.12	0.886 ± 0.09	1 ± 0.024	0.982 ± 0.024	0.866 ± 0.053	0.763 ± 0.041	0.414 ± 0.038	0.187 ± 0.026	0.054 ± 0.0035	0.0323 ± 0.0021
CME SYNOVIAL	1.35 ± 0.12	1.26 ± 0.024	1.27 ± 0.032	1.21 ± 0.036	1.02 ± 0.1	1.03 ± 0.1	0.931 ± 0.15	0.554 ± 0.017	1.14 ± 0.094	0.998 ± 0.15	0.567 ± 0.12	0.328 ± 0.037	0.237 ± 0.023	0.215 ± 0.016	0.203 ± 0.013	0.284 ± 0.036
COLO320DM LARGE INTESTINE	1.07 ± 0.14	1.06 ± 0.051	1.09 ± 0.019	1.05 ± 0.1	0.988 ± 0.083	0.863 ± 0.053	0.492 ± 0.035	0.347 ± 0.023	1.07 ± 0.064	1.13 ± 0.02	1.13 ± 0.12	1.09 ± 0.035	1.05 ± 0.091	0.787 ± 0.14	0.446 ± 0.014	0.388 ± 0.02
DU4475 BREAST	0.972 ± 0.062	1.06 ± 0.068	0.934 ± 0.12	1.13 ± 0.12	1.01 ± 0.16	0.987 ± 0.27	1.06 ± 0.081	0.939 ± 0.1	0.818 ± 0.31	1.23 ± 0.41	0.233 ± 0.071	0.139 ± 0.054	0.029 ± 0.0066	0.0287 ± 0.0051	0.025 ± 0.0046	0.0273 ± 0.0051
H23 LUNG	1.06 ± 0.062	1.02 ± 0.034	1.05 ± 0.026	1.04 ± 0.036	1.1 ± 0.061	1.02 ± 0.046	1.04 ± 0.044	0.659 ± 0.029	1.01 ± 0.016	1.03 ± 0.027	1 ± 0.034	0.629 ± 0.058	0.403 ± 0.031	0.237 ± 0.028	0.0293 ± 0.0015	0.0267 ± 0.0021
HCC78 LUNG	1.01 ± 0.16	0.913 ± 0.1	1.19 ± 0.12	0.986 ± 0.062	1.28 ± 0.093	1.1 ± 0.15	0.973 ± 0.1	0.432 ± 0.036	0.894 ± 0.24	0.733 ± 0.17	0.63 ± 0.1	0.538 ± 0.083	0.0747 ± 0.013	0.0363 ± 0.0042	0.0317 ± 0.0015	0.0217 ± 0.0042
HCC202 BREAST	1.03 ± 0.41	1.22 ± 0.26	1.02 ± 0.15	1.13 ± 0.24	0.966 ± 0.12	1.15 ± 0.52	0.895 ± 0.3	0.866 ± 0.29	1.2 ± 0.18	1.26 ± 0.26	0.896 ± 0.058	1.04 ± 0.49	0.697 ± 0.069	0.457 ± 0.065	0.0987 ± 0.019	0.0423 ± 0.0078

— the supplement of paper PMC6045584
